Assay results published in the supplement of paper PMC11061612.

What was measured:
[1] = tested on: PANC-10-05 (Pancreatic Carcinoma); assay: combination Emax (second highest fraction inhibited in the dose matrix, 72 h); higher = more inhibition; extreme values may be limits of the assay
In short: (§1)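 Cell lines in DMEM/F12 or RPMI with 10% FBS were plated in 1536-well plates, held 24 hours at 37°C, 5% CO2, then given two-drug dose matrices for 72 hours (DMSO typically 0.2%). Viability was read by CellTiter-Glo 2.0 luminescence and scaled as inhibition from 0 (vehicle wells) to 1 (blank wells). Combination Emax is the second-highest inhibition in the matrix; Bliss excess is observed combination effect minus expected EA + EB − EA·EB, EA and EB being single-agent effects.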

[2] = tested on: TT (Thyroid Gland Carcinoma); assay: as above
In short: as §1

[3] = tested on: NCI-H1666 (Lung Adenocarcinoma); assay: as above
In short: as §1

[4] = tested on: NY (Osteosarcoma); assay: as above
In short: as §1

[5] = tested on: ECC10 (Gastric Carcinoma); assay: as above
In short: as §1

[6] = tested on: CAPAN-2 (Pancreatic Carcinoma); assay: as above
In short: as §1

[7] = tested on: ONS-76 (Other Solid Carcinomas); assay: as above
In short: as §1

[8] = tested on: NCI-H64 (Small Cell Lung Carcinoma); assay: as above
In short: as §1

[9] = tested on: COLO-320-HSR (Colorectal Carcinoma); assay: as above
In short: as §1

[10] = tested on: IGR-37 (Melanoma); assay: as above
In short: as §1

[11] = tested on: FU97 (Gastric Carcinoma); assay: as above
In short: as §1

[12] = tested on: U-2-OS (Osteosarcoma); assay: as above
In short: as §1

[13] = tested on: NCI-H1581 (Non-Small Cell Lung Carcinoma); assay: as above
In short: as §1

[14] = tested on: KARPAS-422 (B-Cell Non-Hodgkin's Lymphoma); assay: as above
In short: as §1

[15] = tested on: BICR22 (Oral Cavity Carcinoma); assay: as above
In short: as §1

[16] = tested on: VCaP (Prostate Carcinoma); assay: as above
In short: as §1

[17] = tested on: CCK-81 (Colorectal Carcinoma); assay: as above
In short: as §1

[18] = tested on: NCI-H2066 (Squamous Cell Lung Carcinoma); assay: as above
In short: as §1

[19] = tested on: PANC-10-05 (Pancreatic Carcinoma); assay: Bliss excess, mean over the matrix (fraction); higher = more synergy
In short: as §1

[20] = tested on: TT (Thyroid Gland Carcinoma); assay: as above
In short: as §1

[21] = tested on: NCI-H1666 (Lung Adenocarcinoma); assay: as above
In short: as §1

[22] = tested on: NY (Osteosarcoma); assay: as above
In short: as §1

[23] = tested on: ECC10 (Gastric Carcinoma); assay: as above
In short: as §1

[24] = tested on: CAPAN-2 (Pancreatic Carcinoma); assay: as above
In short: as §1

[25] = tested on: ONS-76 (Other Solid Carcinomas); assay: as above
In short: as §1

[26] = tested on: NCI-H64 (Small Cell Lung Carcinoma); assay: as above
In short: as §1

[27] = tested on: COLO-320-HSR (Colorectal Carcinoma); assay: as above
In short: as §1

[28] = tested on: IGR-37 (Melanoma); assay: as above
In short: as §1

[29] = tested on: FU97 (Gastric Carcinoma); assay: as above
In short: as §1

[30] = tested on: U-2-OS (Osteosarcoma); assay: as above
In short: as §1

[31] = tested on: NCI-H1581 (Non-Small Cell Lung Carcinoma); assay: as above
In short: as §1

[32] = tested on: KARPAS-422 (B-Cell Non-Hodgkin's Lymphoma); assay: as above
In short: as §1

[33] = tested on: BICR22 (Oral Cavity Carcinoma); assay: as above
In short: as §1

[34] = tested on: VCaP (Prostate Carcinoma); assay: as above
In short: as §1

[35] = tested on: CCK-81 (Colorectal Carcinoma); assay: as above
In short: as §1

[36] = tested on: NCI-H2066 (Squamous Cell Lung Carcinoma); assay: as above
In short: as §1
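Throughout, for Bliss excess, mean over the matrix: after 72 h of two-drug dosing.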

Row | SMILES | combination Emax [1] | combination Emax [2] | combination Emax [3] | combination Emax [4] | combination Emax [5] | combination Emax [6] | combination Emax [7] | combination Emax [8] | combination Emax [9] | combination Emax [10] | combination Emax [11] | combination Emax [12] | combination Emax [13] | combination Emax [14] | combination Emax [15] | combination Emax [16] | combination Emax [17] | combination Emax [18] | Bliss excess [19] | Bliss excess [20] | Bliss excess [21] | Bliss excess [22] | Bliss excess [23] | Bliss excess [24] | Bliss excess [25] | Bliss excess [26] | Bliss excess [27] | Bliss excess [28] | Bliss excess [29] | Bliss excess [30] | Bliss excess [31] | Bliss excess [32] | Bliss excess [33] | Bliss excess [34] | Bliss excess [35] | Bliss excess [36]
1 | CN(CCO)CC[C@H](CSc1ccccc1)Nc1ccc(S(=O)(=O)NC(=O)c2ccc(N3CCC([C@@H](O)c4ccccc4-c4ccc(Cl)cc4)CC3)cc2)cc1S(=O)(=O)C(F)(F)F [AZD4320] + Nc1ccn([C@@H]2O[C@H](CO)[C@@H](O)C2(F)F)c(=O)n1 [Gemcitabine] (first compound max 1 µM, 7x7, partner max 0.3 µM) | 0.582 | 0.615 | 0.501 | 0.966 | 1 | 0.586 | 0.724 | 0.998 | 0.569 | 0.872 | 0.349 | 0.501 | 0.482 | 0.97 | 0.95 | 0.547 | 0.589 | 0.338 | 0.0148 | 0.0159 | -0.0121 | 0.0595 | 0.0147 | -0.0009 | 0.003 | 0.0845 | -0.078 | 0.0268 | 0.0132 | 0.0048 | 0.0326 | 0.067 | -0.0171 | -0.0098 | -0.0153 | -0.0764
2 | Cc1c2c(nn1C)CSCc1cc(n(C)n1)CSc1cc(c3ccccc3c1)OCCCc1c(C(=O)O)n(C)c3c-2c(Cl)ccc13 [AZD5991] + CC(=O)O[C@H]1C(=O)[C@@]2(C)[C@H]([C@H](OC(=O)c3ccccc3)[C@]3(O)C[C@H](OC(=O)[C@H](O)[C@@H](NC(=O)c4ccccc4)c4ccccc4)C(C)=C1C3(C)C)[C@]1(OC(C)=O)CO[C@@H]1C[C@@H]2O [Paclitaxel] (first compound max 1 µM, 7x7, partner max 3 µM) | 0.569 | 0.26 | 0.563 | 0.963 | 0.942 | 0.144 | 0.644 | 0.719 | 0.991 | 0.885 | 0.257 | 0.735 | 1 | 0.996 | 0.98 | 0.977 | 0.989 | 0.589 | 0.0368 | -0.0423 | -0.0239 | 0.0268 | -0.0567 | 0.0086 | -0.0383 | 0.0573 | -0.0443 | 0.0439 | -0.0142 | -0.0291 | 0.0114 | 0.0084 | 0.0021 | 0.0074 | -0.0396 | -0.027
3 | Cc1c2c(nn1C)CSCc1cc(n(C)n1)CSc1cc(c3ccccc3c1)OCCCc1c(C(=O)O)n(C)c3c-2c(Cl)ccc13 [AZD5991] + CS(=O)(=O)CCNCc1ccc(-c2ccc3ncnc(Nc4ccc(OCc5cccc(F)c5)c(Cl)c4)c3c2)o1 [Lapatinib] (first compound max 1 µM, 7x7, partner max 10 µM) | 0.474 | 0.237 | 0.942 | 0.564 | 0.975 | 0.186 | 0.294 | 0.111 | 1 | 0.36 | 0.906 | 0.197 | 0.968 | 0.965 | 0.969 | 0.96 | 1 | 0.426 | -0.0585 | 0.0128 | 0.0641 | -0.0523 | 0.0088 | -0.0087 | -0.0232 | -0.0332 | 0.0422 | -0.0622 | -0.0583 | -0.0345 | -0.0138 | -0.0425 | 0.0948 | -0.0052 | 0.055 | -0.0195
4 | Cc1c2c(nn1C)CSCc1cc(n(C)n1)CSc1cc(c3ccccc3c1)OCCCc1c(C(=O)O)n(C)c3c-2c(Cl)ccc13 [AZD5991] + Nc1ccn([C@@H]2O[C@H](CO)[C@@H](O)C2(F)F)c(=O)n1 [Gemcitabine] (first compound max 1 µM, 7x7, partner max 0.3 µM) | 0.472 | 0.405 | 0.473 | 0.88 | 0.935 | 0.101 | 0.499 | 0.37 | 0.944 | 0.79 | 0.232 | 0.387 | 0.998 | 0.979 | 0.957 | 0.977 | 0.942 | 0.184 | -0.0263 | -0.0048 | -0.0299 | -0.0564 | 0.0593 | -0.035 | 0.0088 | 0.0292 | -0.0386 | 0.011 | 0.0193 | -0.0017 | 0.0459 | -0.0219 | -0.0254 | 0.0667 | 0.0013 | -0.0415
5 | C[C@@H]1COCCN1c1cc(C2([S@](C)(=N)=O)CC2)nc(-c2ccnc3[nH]ccc23)n1 [AZD6738] + C1CC(C1)(C(=O)[O-])C(=O)[O-].N.N.[Pt+2] [Carboplatin] (first compound max 10 µM, 7x7, partner max 10 µM) | 0.477 | 0.442 | 0.304 | 0.568 | 0.397 | 0.159 | 0.814 | 0.793 | 0.495 | 0.616 | 0.349 | 0.511 | 0.281 | 0.434 | 0.804 | 0.48 | 0.886 | 0.412 | -0.0611 | -0.0108 | -0.0814 | -0.0504 | -0.0097 | -0.0168 | -0.0512 | -0.0431 | -0.036 | -0.0539 | -0.0215 | -0.0234 | -0.0399 | -0.0683 | -0.0297 | -0.0644 | -0.0429 | -0.0715
6 | Cc1cc2ncnn2cc1Nc1ncc2c(n1)n(C1CCOCC1)c(=O)n2C [AZD7648] + COc1cc([C@@H]2c3cc4c(cc3[C@@H](O[C@@H]3O[C@@H]5CO[C@@H](C)O[C@H]5[C@H](O)[C@H]3O)[C@H]3COC(=O)[C@H]23)OCO4)cc(OC)c1O [Etoposide] (first compound max 10 µM, 7x7, partner max 10 µM) | 0.636 | 0.431 | 0.401 | 0.654 | 0.913 | 0.186 | 0.748 | 0.316 | 0.606 | 0.703 | 0.298 | 0.647 | 0.787 | 0.884 | 0.856 | 0.579 | 0.565 | 0.332 | 0.0148 | 0.0627 | 0.0131 | 0.0475 | 0.108 | 0.0103 | 0.0815 | -0.0142 | 0.0573 | 0.0178 | -0.0016 | 0.0528 | 0.0368 | -0.0391 | 0.13 | 0.0464 | 0.093 | -0.03
7 | C[C@@H](Nc1cc(F)cc(F)c1)c1cc(C(=O)N(C)C)cc2c(=O)cc(N3CCOCC3)oc12 [AZD8186] + C1CN(CCC1(C(=O)N[C@@H](CCO)C2=CC=C(C=C2)Cl)N)C3=NC=NC4=C3C=CN4 [AZD5363] (first compound max 10 µM, 7x7, partner max 10 µM) | 0.436 | 0.415 | 0.406 | 0.325 | 0.276 | 0.285 | 0.312 | 0.277 | 0.184 | 0.44 | 0.374 | 0.279 | 0.101 | 0.628 | 0.308 | 0.443 | 0.266 | 0.513 | -0.0847 | -0.0413 | -0.0707 | 0.0425 | 0.0141 | -0.0305 | -0.028 | 0.0116 | 0.0159 | 0.0334 | -0.0072 | -0.0324 | -0.0207 | -0.106 | 0.0421 | -0.0177 | -0.0118 | -0.0364
